# Measured values from patent US20230365553A1, “COMPOUNDS AND COMPOSITIONS FOR TREATING CONDITIONS ASSOCIATED WITH STING ACTIVITY” (IFM Due, Inc., priority 2020, published 2023).
# Target: T1, STING (Homo sapiens, UniProt Q86WV6, G230A/H232R/R293Q/R71H)
# T1 construct: host or cells: THP1-Dual KO-IFNAR2 cells
# Assay: STING reporter assay: luciferase reporter activity in THP1-Dual KO-IFNAR2 cells stimulated with 2′3′cGAMP
# Type: cell-based
# Details: 15 μM 2′3′cGAMP, 24h, read-out: hSTING EC50
# How it was run: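 THP1-Dual KO-IFNAR2 cells (2×10E6 cells/mL) were exposed to compounds at 0.0017-100 μM, then stimulated with 2′3′cGAMP (15 μM final) transfected via Lipofectamine 2000. After 24h at 37° C., secreted luciferase in supernatant was read by QUANTI-Luc luminescence; EC50 derived from concentration-response.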
# T1 sequence (Q86WV6 whole entry R71H/G230A/H232R/R293Q): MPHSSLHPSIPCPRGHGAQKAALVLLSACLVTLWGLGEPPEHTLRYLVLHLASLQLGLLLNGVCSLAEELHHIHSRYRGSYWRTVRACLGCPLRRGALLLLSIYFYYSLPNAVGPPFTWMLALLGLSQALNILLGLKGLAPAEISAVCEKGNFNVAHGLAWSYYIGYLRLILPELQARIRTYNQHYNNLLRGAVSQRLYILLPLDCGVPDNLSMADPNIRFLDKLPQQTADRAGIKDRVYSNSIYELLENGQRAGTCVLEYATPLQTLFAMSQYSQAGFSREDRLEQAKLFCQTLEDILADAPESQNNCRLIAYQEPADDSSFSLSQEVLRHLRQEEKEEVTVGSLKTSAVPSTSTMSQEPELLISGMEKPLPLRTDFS
row,SMILES,EC50 [µM]
1,"CCC(=O)Nc1c[nH]c2ccc(-c3cnn(C4CCCC4)c3)cc12 [Compound 137, N-(5-(1-cyclopentyl-1H-pyrazol-4-yl)-1H-indol-3-yl)propionamide]",5 to 100
2,"NC1(C(=O)Nc2c[nH]c3ccc(-c4cnn(-c5ccc(C(F)(F)F)cc5)c4)cc23)CC(F)(F)C1 [Compound 185, 1-amino-3,3-difluoro-N-(5-(1-(4-(trifluoromethyl)phenyl)-1H-pyrazol-4-yl)-1H-indol-3-yl)cyclobutane-1-carboxamide]",5 to 100
3,"CCC(=O)Nc1c[nH]c2ccc(-c3cc(C#N)cs3)cc12 [Compound 136, N-(5-(4-cyanothiophen-2-yl)-1H-indol-3-yl)propionamide]",1 to 5
4,"O=C(Nc1c[nH]c2ccc(-c3cnn(-c4ccc(C(F)(F)F)cc4)c3)cc12)C1(O)COC1 [Compound 194, 3-hydroxy-N-(5-(1-(4-(trifluoromethyl)phenyl)-1H-pyrazol-4-yl)-1H-indol-3-yl)oxetane-3-carboxamide]",1 to 5
5,"CC(C)(N)CC(=O)Nc1c[nH]c2ccc(-c3cnn(-c4ccc(C(F)(F)F)cc4)c3)cc12 [Compound 189, 3-amino-3-methyl-N-(5-(1-(4-(trifluoromethyl)phenyl)-1H-pyrazol-4-yl)-1H-indol-3-yl)butanamide]",5 to 100
6,"COCC(=O)Nc1c[nH]c2ccc(-c3cnn(-c4ccc(C(F)(F)F)cc4)c3)cc12 [Compound 174, 2-methoxy-N-(5-(1-(4-(trifluoromethyl)phenyl)-1H-pyrazol-4-yl)-1H-indol-3-yl)acetamide]",0.2 to 1
7,"O=C(Nc1c[nH]c2ccc(-c3cnn(-c4ccc(C(F)(F)F)cc4)c3)cc12)C1CCC1 [Compound 111, N-(5-(1-(4-(trifluoromethyl)phenyl)-1H-pyrazol-4-yl)-1H-indol-3-yl)cyclobutanecarboxamide]",0.2 to 1
8,"CN1CCC(C(=O)Nc2c[nH]c3ccc(-c4cnn(-c5ccc(C(F)(F)F)cc5)c4)cc23)C1=O (centres unmarked) [Compound 211, 1-methyl-2-oxo-N-(5-(1-(4-(trifluoromethyl)phenyl)-1H-pyrazol-4-yl)-1H-indol-3-yl)pyrrolidine-3-carboxamide]",1 to 5
9,"O=C(Nc1c[nH]c2ccc(-c3cnn(-c4ccc(C(F)(F)F)cc4)c3)cc12)C1(O)CCC1 [Compound 202, 1-hydroxy-N-(5-(1-(4-(trifluoromethyl)phenyl)-1H-pyrazol-4-yl)-1H-indol-3-yl)cyclobutane-1-carboxamide]",0.2 to 1
10,"CC(=O)NC(C)(C)C(=O)Nc1c[nH]c2ccc(-c3cnn(-c4ccc(C(F)(F)F)cc4)c3)cc12 [Compound 181, 2-acetamido-2-methyl-N-(5-(1-(4-(trifluoromethyl)phenyl)-1H-pyrazol-4-yl)-1H-indol-3-yl)propanamide]",5 to 100
11,"CCc1ccc(-n2cc(-c3ccc4[nH]cc(NC(=O)CC(C)(C)O)c4c3)cn2)cc1 [Compound 113, N-(5-(1-(4-ethylphenyl)-1H-pyrazol-4-yl)-1H-indol-3-yl)-3-hydroxy-3-methylbutanamide]",0.04 to 0.2
12,"CC(C)CC(C)(N)C(=O)Nc1c[nH]c2ccc(-c3cnn(-c4ccc(C(F)(F)F)cc4)c3)cc12 (centres unmarked) [Compound 182, 2-amino-2,4-dimethyl-N-(5-(1-(4-(trifluoromethyl)phenyl)-1H-pyrazol-4-yl)-1H-indol-3-yl)pentanamide]",5 to 100
13,"CC1(C(=O)Nc2c[nH]c3ccc(-c4cnn(-c5ccc(C(F)(F)F)cc5)c4)cc23)CCCO1 (centres unmarked) [Compound 203, 2-methyl-N-(5-(1-(4-(trifluoromethyl)phenyl)-1H-pyrazol-4-yl)-1H-indol-3-yl)tetrahydrofuran-2-carboxamide]",5 to 100
14,"CCC(C)(O)C(=O)Nc1c[nH]c2ccc(-c3cnn(-c4ccc(C(F)(F)F)cc4)c3)cc12 (centres unmarked) [Compound 200, 2-hydroxy-2-methyl-N-(5-(1-(4-(trifluoromethyl)phenyl)-1H-pyrazol-4-yl)-1H-indol-3-yl)butanamide]",1 to 5
15,"COCC1(C(=O)Nc2c[nH]c3ccc(-c4cnn(-c5ccc(C(F)(F)F)cc5)c4)cc23)CCC1 [Compound 199, 1-(methoxymethyl)-N-(5-(1-(4-(trifluoromethyl)phenyl)-1H-pyrazol-4-yl)-1H-indol-3-yl)cyclobutane-1-carboxamide]",1 to 5
16,"CCc1ccc(-n2cc(-c3ccc4[nH]cc(NC(=O)C5CCCC5)c4c3)cn2)cc1 [Compound 115, N-(5-(1-(4-ethylphenyl)-1H-pyrazol-4-yl)-1H-indol-3-yl)cyclopentanecarboxamide]",0.04 to 0.2
17,"CCc1ccc(-n2cc(-c3ccc4[nH]cc(NC(=O)C(C)C)c4c3)cn2)cc1 [Compound 133, N-(5-(1-(4-ethylphenyl)-1H-pyrazol-4-yl)-1H-indol-3-yl)isobutyramide]",0.04 to 0.2
18,"COCCCC(=O)Nc1c[nH]c2ccc(-c3cnn(-c4ccc(C(F)(F)F)cc4)c3)cc12 [Compound 177, 4-methoxy-N-(5-(1-(4-(trifluoromethyl)phenyl)-1H-pyrazol-4-yl)-1H-indol-3-yl)butanamide]",0.04 to 0.2
19,"CCC(=O)Nc1c[nH]c2ccc(-c3cnn(-c4ccc(C(F)(F)F)cc4)c3)cc12 [Compound 139, N-(5-(1-(4-(trifluoromethyl)phenyl)-1H-pyrazol-4-yl)-1H-indol-3-yl)propionamide]",0.2 to 1
20,"CCc1ccc(-n2cc(-c3ccc4[nH]cc(NC(=O)C(C)O)c4c3)cn2)cc1 (centres unmarked) [Compound 132, N-(5-(1-(4-ethylphenyl)-1H-pyrazol-4-yl)-1H-indol-3-yl)-2-hydroxypropanamide]",0.2 to 1
21,"CC(=O)Nc1c[nH]c2ccc(-c3cnn(-c4ccc(C5(C)CCCCC5)cc4)c3)cc12 [Compound 171, N-(5-(1-(4-(1-methylcyclohexyl)phenyl)-1H-pyrazol-4-yl)-1H-indol-3-yl)acetamide]",1 to 5

# The remaining lines, values ahead:
row,EC50 [µM],SMILES
1,5 to 100,"O=C(Nc1c[nH]c2ccc(-c3cnn(-c4ccc(C(F)(F)F)cc4)c3)cc12)[C@@H]1CC(F)(F)CN1 [compound 184, (S)-4,4-difluoro-N-(5-(1-(4-(trifluoromethyl)phenyl)-1H-pyrazol-4-yl)-1H-indol-3-yl)pyrrolidine-2-carboxamide]"
2,5 to 100,"CC1=NOC(C)(C(=O)Nc2c[nH]c3ccc(-c4cnn(-c5ccc(C(F)(F)F)cc5)c4)cc23)C1 (centres unmarked) [Compound 230, 3,5-dimethyl-N-(5-(1-(4-(trifluoromethyl)phenyl)-1H-pyrazol-4-yl)-1H-indol-3-yl)-4,5-dihydroisoxazole-5-carboxamide]"
3,0.2 to 1,"O=C(Nc1c[nH]c2ccc(-c3cnn(-c4ccc(C(F)(F)F)cc4)c3)cc12)C1(F)CCC1 [Compound 241, 1-fluoro-N-(5-(1-(4-(trifluoromethyl)phenyl)-1H-pyrazol-4-yl)-1H-indol-3-yl)cyclobutane-1-carboxamide]"
4,1 to 5,"O=C1CC(C(=O)Nc2c[nH]c3ccc(-c4cnn(-c5ccc(C(F)(F)F)cc5)c4)cc23)CCN1 (centres unmarked) [Compound 219, 2-oxo-N-(5-(1-(4-(trifluoromethyl)phenyl)-1H-pyrazol-4-yl)-1H-indol-3-yl)piperidine-4-carboxamide]"
5,1 to 5,"N#CC1(C(=O)Nc2c[nH]c3ccc(-c4cnn(-c5ccc(C(F)(F)F)cc5)c4)cc23)CC1 [Compound 235, 1-cyano-N-(5-(1-(4-(trifluoromethyl)phenyl)-1H-pyrazol-4-yl)-1H-indol-3-yl)cyclopropane-1-carboxamide]"
6,0.2 to 1,"C[C@@H](c1cccc(C(F)(F)F)c1)n1cc(-c2ccc3[nH]cc(NC(=O)C4CCC4)c3c2)cn1 [Compound 243, (S)-N-(5-(1-(1-(3-(trifluoromethyl)phenyl)ethyl)-1H-pyrazol-4-yl)-1H-indol-3-yl)cyclobutanecarboxamide]"
7,0.2 to 1,"O=C(COC(F)(F)F)Nc1c[nH]c2ccc(-c3cnn(-c4ccc(C(F)(F)F)cc4)c3)cc12 [Compound 212, 2-(trifluoromethoxy)-N-(5-(1-(4-(trifluoromethyl)phenyl)-1H-pyrazol-4-yl)-1H-indol-3-yl)acetamide]"
8,1 to 5,"CC(=O)N(C)CC(=O)Nc1c[nH]c2ccc(-c3cnn(-c4ccc(C(F)(F)F)cc4)c3)cc12 [Compound 225, N-methyl-N-(2-oxo-2-((5-(1-(4-(trifluoromethyl)phenyl)-1H-pyrazol-4-yl)-1H-indol-3-yl)amino)ethyl)acetamide]"
9,1 to 5,"Cn1ccnc1C(=O)Nc1c[nH]c2ccc(-c3cnn(-c4ccc(C(F)(F)F)cc4)c3)cc12 [Compound 269, 1-methyl-N-(5-(1-(4-(trifluoromethyl)phenyl)-1H-pyrazol-4-yl)-1H-indol-3-yl)-1H-imidazole-2-carboxamide]"
10,1 to 5,"CC(C)(C)C(=O)Nc1c[nH]c2ccc(-c3cnn(-c4ccc(C(F)(F)F)cc4)c3)cc12 [Compound 216, N-(5-(1-(4-(trifluoromethyl)phenyl)-1H-pyrazol-4-yl)-1H-indol-3-yl)pivalamide]"
11,1 to 5,"O=C(Nc1c[nH]c2ccc(-c3cnn(-c4ccc(C(F)(F)F)cc4)c3)cc12)c1ncco1 [Compound 272, N-(5-(1-(4-(trifluoromethyl)phenyl)-1H-pyrazol-4-yl)-1H-indol-3-yl)oxazole-2-carboxamide]"
12,0.2 to 1,"COCCOCC(=O)Nc1c[nH]c2ccc(-c3cnn(-c4ccc(C(F)(F)F)cc4)c3)cc12 [Compound 217, 2-(2-methoxyethoxy)-N-(5-(1-(4-(trifluoromethyl)phenyl)-1H-pyrazol-4-yl)-1H-indol-3-yl)acetamide]"
13,0.2 to 1,"CC(C)n1cc(C(=O)Nc2c[nH]c3ccc(-c4cnn(-c5ccc(C(F)(F)F)cc5)c4)cc23)nn1 [Compound 283, 1-isopropyl-N-(5-(1-(4-(trifluoromethyl)phenyl)-1H-pyrazol-4-yl)-1H-indol-3-yl)-1H-1,2,3-triazole-4-carboxamide]"
14,1 to 5,"O=C(Nc1c[nH]c2ccc(-c3cnn(-c4ccc(C(F)(F)F)cc4)c3)cc12)c1ccc(=O)[nH]n1 [Compound 282, 6-oxo-N-(5-(1-(4-(trifluoromethyl)phenyl)-1H-pyrazol-4-yl)-1H-indol-3-yl)-1,6-dihydropyridazine-3-carboxamide]"
